Reference: US10702521B2, “Methods for treating neisseria gonorrhoeae infection with substituted 1,2-dihydro-2A,5,8A-triazaacenaphthylene-3,8-diones” (priority 2014, dated 2020)
Counter-ions that a name gives are not always drawn.

These molecules were tested on Mycobacterium tuberculosis H37Rv (assay: Mycobacterium tuberculosis H37Rv Inhibition Assay (resazurin MIC)). Conditions: 144 h, H37Rv strain, six days incubation, resazurin fluorescence after 48 hours, read-out: MIC value.
Format: cell-based
Work on `O=c1ccc2ccc(=O)n3c2n1C[C@H]3CN1CCC(NCc2cc(F)c3c(c2)OCCO3)CC1` [Example 31, (1R)-1-[(4-{[(8-Fluoro-2,3-dihydro-1,4-benzodioxin-6-yl)methyl]amino}-1-piperidinyl)methyl]-1,2-dihydro-4H,9H-imidazo[1,2,3-ij]-1,8-naphthyridine-4,9-dione hydrochloride] yielded an MIC of under 2 µg/mL.
`O=c1ccc2ccc(=O)n3c2n1C[C@H]3CN1CCC(NCc2ccc3c(c2)OCCO3)CC1` [Example 30, (1R)-1-({4-[(2,3-Dihydro-1,4-benzodioxin-6-ylmethyl)amino]-1-piperidinyl}methyl)-1,2-dihydro-4H,9H-imidazo[1,2,3-ij]-1,8-naphthyridine-4,9-dione hydrochloride] was tested, and the MIC was under 2 µg/mL.
Work on `O=C1CSc2ccc(CNC3CCN(CC4Cn5c(=O)ccc6ccc(=O)n4c65)CC3)cc2N1` (racemic) [Example 12, 1-[(4-{[(3-Oxo-3,4-dihydro-2H-1,4-benzothiazin-6-yl)methyl]amino}-1-piperidinyl)methyl]-1,2-dihydro-4H,9H-imidazo[1,2,3-ij]-1,8-naphthyridine-4,9-dione hydrochloride (2:1 mixture of R:S)] yielded an MIC of under 2 µg/mL.
For `O=c1ccc2ncc(=O)n3c2n1C[C@H]3CN1CCC(NCc2cnc3nsnc3c2)CC1` [Example 49, (2R)-2-({4-[([1,2,5]Thiadiazolo[3,4-b]pyridin-6-ylmethyl)amino]-1-piperidinyl}methyl)-1,2-dihydro-3H,8H-2a,5,8a-triazaacenaphthylene-3,8-dione], the MIC was under 2 µg/mL.
`Cl.O=c1ccc2ncc(=O)n3c2n1C[C@H]3CN1CCC(NCc2cc3c(cn2)OCCS3)CC1` [Example 19A, (2R)-2-({4-[(2,3-Dihydro[1,4]oxathiino[2,3-c]pyridin-7-ylmethyl)amino]-1-piperidinyl}methyl)-1,2-dihydro-3H,8H-2a,5,8a-triazaacenaphthylene-3,8-dione hydrochloride] gave an MIC of under 2 µg/mL.

Same assay, conditions: 144 h, read-out: MIC value, H37Rv strain, six days incubation, resazurin fluorescence after 48 hours
Work on `O=c1ccc2ncc(=O)n3c2n1C[C@H]3CN1CCC(NCc2cc3c(cn2)OCS3)CC1` [Example 16A, (2R)-2-({4-[([1,3]Oxathiolo[5,4-c]pyridin-6-ylmethyl)amino]-1-piperidinyl}methyl)-1,2-dihydro-3H,8H-2a,5,8a-triazaacenaphthylene-3,8-dione hydrochloride] yielded an MIC of under 2 µg/mL.
Work on `O=c1ccc2ncc(=O)n3c2n1C[C@H]3CN1CCC(NCc2ccc3c(c2)OCCO3)CC1` [Example 40, (2R)-2-({4-[(2,3-Dihydro-1,4-benzodioxin-6-ylmethyl)amino]-1-piperidinyl}methyl)-1,2-dihydro-3H,8H-2a,5,8a-triazaacenaphthylene-3,8-dione hydrochloride] yielded an MIC of under 2 µg/mL.
`O=c1cnc2ccc(=O)n3c2n1C[C@H]3CN1CCC(NCc2cc3c(cn2)OCCC3)CC1` [Example 37, (1R)-1-({4-[(3,4-Dihydro-2H-pyrano[2,3-c]pyridin-6-ylmethyl)amino]-1-piperidinyl}methyl)-1,2-dihydro-3H,8H-2a,5,8a-triazaacenaphthylene-3,8-dione hydrochloride] showed an MIC of under 2 µg/mL.
For `N#Cc1cc(CNC2CCN(C[C@@H]3Cn4c(=O)cnc5ccc(=O)n3c54)CC2)cc2c1OCCO2` [Example 56, 7-{[(1-{[(1R)-3,8-Dioxo-1,2-dihydro-3H,8H-2a,5,8a-triazaacenaphthylen-1-yl]methyl}-4-piperidinyl)amino]methyl}-2,3-dihydro-1,4-benzodioxin-5-carbonitrile hydrochloride], the MIC was under 2 µg/mL.
For `O=c1cnc2ccc(=O)n3c2n1C[C@H]3CN1CCC(NCc2cc3c(cn2)OCS3)CC1` [Example 13A, (1R)-1-({4-[([1,3]Oxathiolo[5,4-c]pyridin-6-ylmethyl)amino]-1-piperidinyl}methyl)-1,2-dihydro-3H,8H-2a,5,8a-triazaacenaphthylene-3,8-dione hydrochloride], the MIC was under 2 µg/mL.
In the case of `O=c1ccc2ccc(=O)n3c2n1C[C@H]3CN1CCC(NCc2ccc3c(c2)OCCC3)CC1` [Example 50, (1R)-1-({4-[(3,4-Dihydro-2H-chromen-7-ylmethyl)amino]-1-piperidinyl}methyl)-1,2-dihydro-4H,9H-imidazo[1,2,3-if]-1,8-naphthyridine-4,9-dione hydrochloride], the MIC was under 2 µg/mL.
`O=c1ccc2ccc(=O)n3c2n1C[C@H]3CN1CCC(NCc2cc3c(cn2)CCC3)CC1` [Example 8, (1R)-1-({4-[(6,7-Dihydro-5H-cyclopenta[c]pyridin-3-ylmethyl)amino]-1-piperidinyl}methyl)-1,2-dihydro-4H,9H-imidazo[1,2,3-ij]-1,8-naphthyridine-4,9-dione hydrochloride] was tested, and the MIC was under 2 µg/mL.
`O=c1ccc2ccc(=O)n3c2n1C[C@H]3CN1CCC(NCc2cc3c(cn2)CCCC3)CC1` [Example 7, (1R)-1-({4-[(5,6,7,8-Tetrahydro-3-isoquinolinylmethyl)amino]-1-piperidinyl}methyl)-1,2-dihydro-4H,9H-imidazo[1,2,3-ij]-1,8-naphthyridine-4,9-dione hydrochloride] gave an MIC of under 2 µg/mL.
`O=c1ccc2ncc(=O)n3c2n1C[C@H]3CN1CCC(NCc2cc3c(cc2F)OCCO3)CC1` [Example 26, (2R)-2-[(4-{[(7-Fluoro-2,3-dihydro-1,4-benzodioxin-6-yl)methyl]amino}-1-piperidinyl)methyl]-1,2-dihydro-3H,8H-2a,5,8a-triazaacenaphthylene-3,8-dione hydrochloride] showed an MIC of at most 1 µg/mL.
Molecule `O=c1cnc2ccc(=O)n3c2n1C[C@H]3CN1CCC(NCc2cc3c(cn2)OCCS3)CC1` [Example 14, (1R)-1-({4-[(2,3-Dihydro[1,4]oxathiino[2,3-c]pyridin-7-ylmethyl)amino]-1-piperidinyl}methyl)-1,2-dihydro-3H,8H-2a,5,8a-triazaacenaphthylene-3,8-dione hydrochloride] has an MIC of under 2 µg/mL.

Same assay, conditions: H37Rv strain, six days incubation, resazurin fluorescence after 48 hours, read-out: MIC value
`CC1(NCc2cc3c(cn2)OCS3)CCN(C[C@@H]2Cn3c(=O)ccc4ccc(=O)n2c43)CC1.Cl` [Example 24, (1R)-1-({4-Methyl-4-[([1,3]oxathiolo[5,4-c]pyridin-6-ylmethyl)amino]-1-piperidinyl}methyl)-1,2-dihydro-4H,9H-imidazo[1,2,3-ij]-1,8-naphthyridine-4,9-dione hydrochloride] showed an MIC of under 2 µg/mL.
For `O=c1ccc2ccc(=O)n3c2n1CC3CN1CCC(NCc2cc3c(cn2)OCCS3)CC1` (racemic) [Example 63], the MIC was under 2 µg/mL.
For `O=c1ccc2ncc(=O)n3c2n1C[C@H]3CN1CCC(NCc2cc3c(cn2)SCO3)CC1` [Example 28, (2R)-2-({4-[([1,3]Oxathiolo[4,5-c]pyridin-6-ylmethyl)amino]-1-piperidinyl}methyl)-1,2-dihydro-3H,8H-2a,5,8a-triazaacenaphthylene-3,8-dione hydrochloride], the MIC was under 2 µg/mL.

Same assay, conditions: read-out: MIC value, H37Rv strain, six days incubation, resazurin fluorescence after 48 hours
`O=c1cnc2ccc(=O)n3c2n1C[C@H]3CN1CCC(NCc2ccc3c(c2)OCCO3)CC1` [Example 44, (1R)-1-({4-[(2,3-Dihydro-1,4-benzodioxin-6-ylmethyl)amino]-1-piperidinyl}methyl)-1,2-dihydro-3H,8H-2a,5,8a-triazaacenaphthylene-3,8-dione hydrochloride] gave an MIC of under 2 µg/mL.
`O=c1ccc2ccc(=O)n3c2n1CC3CN1CCC(NCc2cc3c(cn2)OCS3)CC1` (stereo not drawn) [Example 2, 1-({4-[([1,3]Oxathiolo[5,4-c]pyridin-6-ylmethyl)amino]-1-piperidinyl}methyl)-1,2-dihydro-4H,9H-imidazo[1,2,3-ij]-1,8-naphthyridine-4,9-dione hydrochloride] gave an MIC of under 2 µg/mL.
For `O=c1ccc2ncc(=O)n3c2n1CC3CN1CCC(NCc2cc3c(cn2)OCCS3)CC1` (stereo not drawn) [Example 20, 2-({4-[(2,3-Dihydro[1,4]oxathiino[2,3-c]pyridin-7-ylmethyl)amino]-1-piperidinyl}methyl)-1,2-dihydro-3H,8H-2a,5,8a-triazaacenaphthylene-3,8-dione hydrochloride], the MIC was under 2 µg/mL.
